Results from patent publication US4937332A, “Cephalosporin derivatives” (Taisho Pharmaceutical Co., Ltd., priority 1987, dated 1990).
Values after ≈ are worked out from the molar mass of the structure shown. Structures can show the parent of a compound that is named as a salt. Where two headings read alike, the source gives them in different places.

Columns and labels:
Escherichia coli A13 = experiment: Minimum inhibitory concentration, agar plate dilution method; type: cell-based
Description: (§1) The antibacterial activity against various bacteria was measured by the agar plate dilution method (inoculum size 10^6 cells/ml), and the results are shown in the following Table 1.

[1] = tested on: Staphylococcus aureus K-1; experiment: as above; type: cell-based
Description: as §1

[2] = tested on: Morganella morganii IID 602; experiment: as above; type: cell-based
Description: as §1

[3] = tested on: Escherichia coli NIJH JC-2; experiment: as above; type: cell-based
Description: as §1

[4] = tested on: Staphylococcus aureus 209P-JC; experiment: as above; type: cell-based; conditions: read-out: Minimum Inhibitory Concentration
Description: as §1

[5] = tested on: Klebsiella pneumoniae T-25; experiment: as above; type: cell-based
Description: as §1

in vivo = conditions: rat, blood, 50 mg/kg in 5% gum arabic, male wister rats, bioassay
Description: Three male wister rats (7 weeks old) for each group were administered orally with the test compounds, and the change of the concentration of the compound in blood was measured.
Dosage of the test compound:
50 mg/kg (suspended in 5% gum arabic)
Quantitative method: Bioasssay
(test bacterium: Escherichia coil SC507)

[6] = Escherichia coli, A13, read-out: Minimum Inhibitory Concentration
[7] = Staphylococcus aureus, K1, read-out: Minimum Inhibitory Concentration
[8] = Morganella morganii, IID602, read-out: Minimum Inhibitory Concentration
[9] = Escherichia coli, NIJHJC2, read-out: Minimum Inhibitory Concentration
[10] = Klebsiella pneumoniae, T25, read-out: Minimum Inhibitory Concentration
[11] = Escherichia coli A13, inoculum size 10^6 cells/ml, read-out: Minimum Inhibitory Concentration
[12] = IID602, Morganella morganii IID 602, inoculum size 10^6 cells/ml, read-out: Minimum Inhibitory Concentration
[13] = NIJHJC2, Escherichia coli NIJH JC-2, inoculum size 10^6 cells/ml, read-out: Minimum Inhibitory Concentration
[14] = Staphylococcus aureus 209P-JC, inoculum size 10^6 cells/ml
[15] = T25, Klebsiella pneumoniae T-25, inoculum size 10^6 cells/ml, read-out: Minimum Inhibitory Concentration

Row | Structure (SMILES) | MIC (Escherichia coli A13; [6]) | MIC [1, 7] | MIC [2, 8] | MIC [3, 9] | MIC ([4]; Staphylococcus aureus, 209P) | MIC [5, 10] | concentration at 4 h (in vivo; Four Hours after oral administration) | concentration at 1 h (in vivo; One Hour after oral administration) | concentration at 2 h (in vivo; Two Hours after oral administration) | MIC (Escherichia coli A13; [11]) | MIC [2, 12] | MIC [3, 13] | MIC [4, 14] | MIC [5, 15] | MIC ([1]; K1, Staphylococcus aureus K-1, inoculum size 10^6 cells/ml, read-out: Minimum Inhibitory Concentration)
1 | COC(=O)/C=C\SC1=C(C(=O)[O-])N2C(=O)[C@@H](NC(=O)/C(=N\O)c3csc(N)n3)[C@H]2SC1.[Na+] | 6.25 µg/mL | 3.13 µg/mL | 0.05 µg/mL | ≤ 0.025 µg/mL | 0.2 µg/mL | 0.2 µg/mL | 16900 ng/mL | 11000 ng/mL | 14200 ng/mL | – | – | – | – | – | –
2 | COC(=O)/C=C\SC1=C(C(=O)O)N2C(=O)[C@@H](NC(=O)/C(=N\OCC(=O)O)c3csc(N)n3)[C@H]2SC1 [Test compound D] | – | – | – | – | – | – | – | – | – | > 100 µg/mL | 0.25 µg/mL (≈ 0.46 µM) | 0.05 µg/mL (≈ 0.092 µM) | 6.25 µg/mL (≈ 11.5 µM) | 0.39 µg/mL (≈ 0.717 µM) | –
3 | C=CC1=C(C(=O)O)N2C(=O)[C@@H](NC(=O)/C(=N\OCC(=O)O)c3csc(N)n3)[C@H]2SC1 [Test compound C, Cefixime sodium salt] | – | – | – | – | – | – | – | – | – | > 100 µg/mL | 0.39 µg/mL | 0.05 µg/mL | 12.5 µg/mL | 12.5 µg/mL | > 100 µg/mL
4 | CC1=C(C(=O)O)N2C(=O)[C@@H](NC(=O)[C@H](N)c3ccccc3)[C@H]2SC1 [Test compound B, Cephalexin] | > 100 µg/mL | > 100 µg/mL | > 100 µg/mL | 3.13 µg/mL (≈ 9.01 µM) | 0.78 µg/mL (≈ 2.25 µM) | 100 µg/mL (≈ 288 µM) | – | – | – | – | – | – | – | – | –
